In patent US20130296311A1, “INHIBITORS OF HCV NS5A” (PRESIDIO PHARMACEUTICALS, INC., priority 2010, published 2013) one finds EC50 data, which are given here for 37 compounds.

For one assay, the system named is HCV 1b_Huh-Luc/Neo-ET cell line persistently expressing a bicistronic genotype 1b replicon in Huh 7 cells. As to the kind of experiment: HCV replicon assay (luciferase readout, 72 h). Particulars: Hepatitis C virus, Huh-7, 72 h, read-out: Inhibition of HCV genotype 1b. The class given is cell-based, HCV genotype 1b. As for the experimental part:
Biological activity of the compounds of the invention was determined using an HCV replicon assay. The HCV 1b_Huh-Luc/Neo-ET cell line persistently expressing a bicistronic genotype 1b replicon in Huh 7 cells was obtained from ReBLikon GMBH. This cell line was used to test compound inhibition using luciferase enzyme activity readout as a measurement of compound inhibition of replicon levels.
On Day 1 (the day after plating), each compound is added in triplicate to the cells. Plates incubated for 72 h prior to running the luciferase assay. Enzyme activity was measured using a Bright-Glo Kit (cat. number E2620) manufactured by Promega Corporation. The following equation was used to generate a percent control value for each compound.
% Control=(Average Compound Value/Average Control)*100
The EC50 value was determined using GraphPad Prism and the following equation:
Y=Bottom+(Top-Bottom)/(1+10̂((LogIC50−X)*HillSlope))
EC50 values of compounds are determined several times in the replicon assay.
Example compounds of the disclosed invention are illustrated in Tables 1-16 attached as appendices. The tables show inhibitory activity of many of the example compounds with respect to HCV 1b. […] The tables further provide mass spectrometry results for the synthesized example compounds.
Regarding `CC1(O)CCN(C(=O)N[C@@H](C(=O)N2CCC[C@H]2c2nc(-c3ccc4cc(C#Cc5cnc([C@@H]6CCCN6C(=O)[C@H](NC(=O)N6CCC(C)(O)CC6)c6ccccc6)[nH]5)ccc4c3)c[nH]2)c2ccccc2)CC1` [Compound 805], the EC50 is < 1 nM.
On the same count and under the same terms, under `O=C(N[C@@H](C(=O)N1CCC[C@H]1C(=O)NCc1ccc(C#Cc2cnc([C@@H]3CCCN3C(=O)[C@H](NC(=O)C3CC3)c3ccccc3)[nH]2)cc1)c1ccccc1)C1CC1` [Compound 121] stands < 1 nM.
Same read-out and setting: under `CC(C)[C@H](NC(=O)N1CCOCC1)C(=O)N1CCC[C@H]1c1ncc(-c2ccc(C#Cc3ccc(-c4cnc([C@@H]5CCCN5C(=O)[C@@H](NC(=O)N5CCOCC5)C(C)C)[nH]4)cc3)cc2)[nH]1` [Compound 285] stands > 1000 nM; under `COC(=O)N[C@H](C(=O)N1CCC[C@H]1c1nc(-c2ccc3cc(C#Cc4cnc([C@@H]5CCCN5C(=O)[C@@H](NC(=O)OC)C5CCOCC5)[nH]4)ccc3c2)c[nH]1)C(C)C` [Compound 1079], < 1 nM.
Take `CN(C)C(=O)N[C@@H](C(=O)N1CCC[C@H]1c1ncc(-c2ccc(C#Cc3ccc(-c4cnc([C@@H]5CCCN5C(=O)[C@H](NC(=O)N(C)C)c5ccccc5)[nH]4)cc3)cc2)[nH]1)c1ccccc1` [Compound 161]: the EC50 is < 1 nM.
The same measure, in the same setting: under `COC(=O)N[C@@H](C(=O)N1CCC[C@H]1CNC(=O)c1ccc(C#Cc2ccc(-c3cnc([C@@H]4CCCN4C(=O)[C@H](NC(=O)OC)c4ccccc4)[nH]3)cc2)cc1)c1ccccc1` [Compound 211] stands < 1 nM; under `COC(=O)N[C@@H](C(=O)N1CCC[C@H]1c1ncc(-c2ccc(C#Cc3ccc(-c4cnc([C@@H]5CCCN5C(=O)[C@H](NC(=O)[C@H]5CCCN5C)c5ccccc5)[nH]4)cc3)cc2)[nH]1)c1ccccc1` [Compound 204], < 1 nM.
On the same count and under the same terms, under `O=C(N[C@@H](C(=O)N1CCC[C@H]1c1ncc(-c2ccc(C#Cc3ccc(-c4cnc([C@@H]5CCCN5C(=O)[C@H](NC(=O)N5CCOCC5)c5ccccc5)[nH]4)cc3)cc2)[nH]1)c1ccccc1)N1CCOCC1` [Compound 248] stands < 1 nM; under `O=C(N[C@@H](C(=O)N1CCC[C@H]1c1ncc(-c2ccc(C#Cc3ccc(-c4cnc([C@@H]5CCCN5C(=O)[C@H](NC(=O)OC5CCOCC5)c5ccccc5)[nH]4)c(F)c3)cc2)[nH]1)c1ccccc1)OC1CCOCC1` [Compound 1014], < 1 nM; under `C[C@@H](NC(=O)C1CC1)C(=O)N1CCC[C@H]1c1ncc(C#Cc2ccc(-c3cnc([C@@H]4CCCN4C(=O)[C@@H](C)NC(=O)C4CC4)[nH]3)cc2)[nH]1` [Compound 111], 1 to 9.9 nM.
As for `COC(=O)N[C@H](C(=O)N1CCC[C@H]1c1ncc(C#Cc2ccc(-c3cnc([C@@H]4CCCN4C(=O)[C@@H](NC(=O)OC)C(C)C)[nH]3)cc2)[nH]1)C(C)C` [Compound 134], the EC50 was < 1 nM.
On the same count and under the same terms, to `COC(=O)N[C@@H](C(=O)N1CCC[C@H]1c1ncc(-c2ccc(C#Cc3ccc(-c4cnc([C@@H]5CCCN5C(=O)NCc5ccccc5)[nH]4)cc3)cc2)[nH]1)c1ccccc1` [Compound 197] belongs < 1 nM; to `O=C(N[C@@H](C(=O)N1CCC[C@H]1c1ncc(-c2ccc(C#Cc3ccc(-c4cnc([C@@H]5CCCN5C(=O)[C@H](NC(=O)C5CC5)c5ccccc5)[nH]4)cc3)cc2)[nH]1)c1ccccc1)C1CC1` [Compound 153], < 1 nM; to `COC(=O)N[C@@H](CC(C)C)C(=O)N1CCC[C@H]1c1ncc(-c2ccc(C#Cc3ccc(-c4cnc([C@@H]5CCCN5C(=O)[C@H](CC(C)C)NC(=O)OC)[nH]4)cc3)cc2)[nH]1` [Compound 961], < 1 nM.
The same measure, in the same setting: to `C(#Cc1ccc2nc([C@@H]3CCCN3)[nH]c2c1)c1ccc(-c2cnc([C@@H]3CCCN3)[nH]2)cc1` [Compound 1035] belongs 10 to 999 nM; to `COC(=O)N[C@H](C(=O)N1CCC[C@H]1c1ncc(-c2ccc(C#Cc3ccc(-c4cnc([C@@H]5CCCN5C(=O)[C@@H](NC5CCOCC5)C(C)C)[nH]4)cc3)cc2)[nH]1)C(C)C` [Compound 1001], 1 to 9.9 nM; to `CS(=O)(=O)N[C@@H](C(=O)N1CCC[C@H]1c1ncc(-c2ccc(C#Cc3ccc(-c4cnc([C@@H]5CCCN5C(=O)[C@@H](c5ccccc5)N5CCOCC5)[nH]4)cc3)cc2)[nH]1)c1ccccc1` [Compound 232], < 1 nM.
Consider `COC(=O)N[C@H](C(=O)N1CCC[C@H]1c1ncc(-c2ccc3nc(C#Cc4ccc5nc([C@@H]6CCCN6C(=O)[C@@H](NC(=O)OC)C6CCOCC6)[nH]c5c4)ccc3c2)[nH]1)C1CCOCC1` [Compound 1108], for which the EC50 was < 1 nM.
On to `COC(=O)N[C@@H](C(=O)N1CCC[C@H]1c1ncc(-c2ccc(C#Cc3ccc(-c4cnc([C@@H]5CCCN5C(=O)[C@H](NC(=O)[C@H]5CCCN5)c5ccccc5)[nH]4)cc3)cc2)[nH]1)c1ccccc1` [Compound 207], for which the EC50 is < 1 nM.
With `CS(=O)(=O)N[C@@H](C(=O)N1CCC[C@H]1c1ncc(-c2ccc(C#Cc3ccc(-c4cnc([C@@H]5CCCN5C(=O)[C@@H](c5ccccc5)N5CCCC5)[nH]4)cc3)cc2)[nH]1)c1ccccc1` [Compound 230], the EC50 was < 1 nM.
Turning to `COC(=O)NC1(C(=O)N2CCC[C@H]2c2ncc(-c3ccc(C#Cc4ccc5nc([C@@H]6CCCN6C(=O)C6(NC(=O)OC)CC6)[nH]c5c4)cc3)[nH]2)CC1` [Compound 1043], the EC50 is 10 to 999 nM.
On the same count and under the same terms, to `COC(=O)N[C@@H](C(=O)N[C@@H](C)c1ncc(-c2ccc(C#Cc3ccc(-c4cnc([C@@H]5CCCN5C(=O)[C@H](NC(=O)OC)C(C)C)[nH]4)cc3)cc2)[nH]1)C(C)C` [Compound 290] belongs > 1000 nM.
On the same count and under the same terms, to `COC(=O)N[C@@H](C(=O)N1CCC[C@H]1c1ncc(-c2ccc(C#Cc3ccc4nc([C@@H]5CCCN5C(=O)[C@H](NC(=O)OC)C(C)C)[nH]c4c3)cc2)[nH]1)C(C)C` [Compound 861] belongs 10 to 999 nM; to `COC(=O)N[C@H]1CCC[C@@H]1C(=O)N1CCC[C@H]1c1ncc(-c2ccc(C#Cc3ccc4nc([C@@H]5CCCN5C(=O)[C@H]5CCC[C@@H]5NC(=O)OC)[nH]c4c3)cc2)[nH]1` [Compound 1059], 10 to 999 nM; to `COC[C@H](NC(=O)OC)C(=O)N1CCC[C@H]1c1ncc(-c2ccc(C#Cc3ccc(-c4cnc([C@@H]5CCCN5C(=O)[C@H](COC)NC(=O)OC)[nH]4)cc3)cc2)[nH]1` [Compound 976], < 1 nM.
Still for that read-out and setting: under `COC(=O)N[C@H](C(=O)N1CCC[C@H]1c1nc2c([nH]1)-c1ccc(C#Cc3ccc4nc([C@@H]5CCCN5C(=O)[C@@H](NC(=O)OC)C(C)C)[nH]c4c3)cc1CC2)C(C)C` [Compound 1101] stands < 1 nM; under `CC(C)[C@@H](NC(=O)OC(C)(C)C)C(=O)N1CCC[C@H]1C(=O)Nc1ccc(C#Cc2cnc([C@@H]3CCCN3C(=O)[C@H](NC(=O)OC(C)(C)C)C(C)C)[nH]2)cc1` [Compound 114], 10 to 999 nM.
Turning to `COC(=O)N[C@@H](C(=O)N1CCC[C@H]1c1ncc(-c2ccc(C#Cc3ccc(-c4cnc([C@@H]5CCCN5C(=O)[C@H](NC(=O)N5CC[C@H](O)C5)c5ccccc5)[nH]4)cc3)cc2)[nH]1)c1ccccc1` [Compound 269], the EC50 is < 1 nM.
The same measure, in the same setting: to `COC(=O)N[C@H](C(=O)N1CCC[C@H]1c1ncc(-c2ccc(C#Cc3ccc(-c4cnc([C@@H]5CCCN5C(=O)[C@H](NC(=O)N5CCC(O)CC5)c5ccccc5)[nH]4)cc3)cc2)[nH]1)C(C)C` [Compound 991] belongs 1 to 9.9 nM.
Take `CC(C)(C)OC(=O)N[C@@H](C(=O)N1CCC[C@H]1c1ncc(C#Cc2ccc(C#Cc3cnc([C@@H]4CCCN4C(=O)[C@H](NC(=O)OC(C)(C)C)c4ccccc4)[nH]3)cc2)[nH]1)c1ccccc1` [Compound 300]: the EC50 is < 1 nM.

The assay is the same for the next values; noted with them: Hepatitis C virus, Huh-7, read-out: Inhibition of HCV genotype 1b.
Turning to `COC(=O)N[C@H](C(=O)N1CCC[C@H]1c1ncc(-c2ccc(C#Cc3ccc(-c4cnc([C@@H]5CCCN5C(=O)[C@H](NC(=O)OC)c5ccccc5)[nH]4)cc3)cc2)[nH]1)[C@@H](C)OC` [Compound 1210], the EC50 is < 1 nM.
As for `COC(=O)N[C@H](C(=O)N1CCC[C@H]1c1nc2ccc(C#Cc3ccc(-c4cnc([C@@H]5CCCN5C(=O)[C@@H](NC(=O)OC)C5CCOCC5)[nH]4)cc3)cc2[nH]1)C(C)C` [Compound 1237], the EC50 is < 1 nM.
For the compound `COC(=O)N[C@H](C(=O)N1CCC[C@H]1c1ncc(-c2ccc(C#Cc3ccc4nc([C@@H]5CCCN5C(=O)[C@@H](NC(=O)OC)C5CCCOC5)[nH]c4c3)cc2)[nH]1)C(C)C` (stereo partly shown) [Compound 1244], the EC50 was < 1 nM.
On the same count and under the same terms, to `COC(=O)N[C@H](C(=O)N1CCN(C(C)=O)C[C@H]1c1ncc(-c2ccc(C#Cc3ccc4nc([C@@H]5CCCN5C(=O)[C@@H](NC(=O)OC)C(C)C)[nH]c4c3)cc2)[nH]1)C(C)C` [Compound 1232] belongs < 1 nM; to `COC(=O)N[C@@H](C(=O)N1CCC[C@H]1c1ncc(-c2ccc(C#Cc3ccc4nc([C@@H]5CCCN5C(=O)[C@H](NC(=O)OC)c5ccccc5)[nH]c4c3)cc2F)[nH]1)c1ccccc1` [Compound 1222], < 1 nM; to `CC[C@H](C)[C@H](NC(=O)OC)C(=O)N1CCC[C@H]1c1ncc(-c2ccc3cc(C#Cc4[nH]c([C@@H]5CCCN5C(=O)[C@@H](NC(=O)OC)[C@@H](C)CC)nc4C(F)(F)F)ccc3c2)[nH]1` [Compound 1253], < 1 nM.
Same read-out and setting: to `COC(=O)N[C@H](C(=O)N1CCC[C@H]1c1nc2c([nH]1)-c1ccc(C#Cc3ccc4nc([C@@H]5CCCN5C(=O)[C@@H](NC(=O)OC)C(C)C)[nH]c4c3)cc1CCC2)C(C)C` [Compound 1279] belongs < 1 nM.
